Measurements: patent EP4707284A1, “HETEROCYCLIC COMPOUND AND USE THEREOF” (Otsuka Pharmaceutical Co., Ltd., priority 2023, dated 2024)

type: physicochemical; settings: Tris-hydrochloric acid buffer (pH 7.5) 50 mmol/L, magnesium chloride 5 mmol/L, evaluation compound 1 µmol/L, 37°C, 60 minutes, average of duplicate
Experimental: The conversion from the evaluation compounds to brexpiprazole in a buffer (i.e., the stability of the evaluation compounds) was evaluated.
The Example 1 compound was dissolved in acetonitrile/water (1:1, v/v) to 10 mmol/L and further diluted with acetonitrile/water (1:1, v/v) to 100 µmol/L for use.
The other Example compounds and the Reference Example 5 compound to Reference Example 7 compound were each dissolved in DMSO to 10 mmol/L and further diluted with acetonitrile to 100 µmol/L for use, except for the following compounds.
The compounds of Examples 52, 95, 96, 117, and 130 (EX 52, EX 95, EX 96, EX 117, and EX 130) were dissolved in acetonitrile/water (8:2, v/v) to 10 mmol/L and further diluted with acetonitrile to 100 µmol/L for use.
The compound of Example 97 (EX 97) was dissolved in acetonitrile/water (8:2, v/v) to 10 mmol/L and further diluted with acetonitrile/water (8:2, v/v) to 100 µmol/L for use.
The compounds of Examples 15 and 116 (EX 15 and EX 116) were dissolved in DMSO to 1 mmol/L and further diluted with acetonitrile to 100 µmol/L for use.
These evaluation compound solutions were prepared at the time of use.
The reaction was conducted by preparing each reaction solution such that the final concentration of each component was as follows. The test was conducted in duplicate.
For the compounds of Examples 1 to 8, 10 to 19, 26 to 27, 37, 50, 87 to 89, 91, 116, 121, 123, 150, and 151 (EX 1 to EX 8, EX 10 to EX 19, EX 26 to EX 27, EX 37, EX 50, EX 87 to EX 89, EX 91, EX 116, EX 121, EX 123, EX 150, and EX 151), and the compounds of Reference Examples 5 to 7 (REX 5 to REX 7), the reaction solution without the evaluation compound (198 µl) was pre-incubated at 37°C for 3 minutes, and then each of the evaluation compound solutions (2 µl) was added and stirred; thereafter, the reaction was started at 37°C. At 0 minutes or 60 minutes after the start of the reaction, the reaction was stopped by adding and stirring a reaction stop solution (1000 µl) composed of acetonitrile/isopropanol (4:1, v/v) containing internal standard substances. However, the 0-minute reaction sample (198 µl) was prepared by adding the evaluation compound (2 µl) after adding the reaction stop solution (1000 µl). The samples after stopping the reaction were used as the measurement samples. Calibration curve samples with the same composition were prepared (final concentrations of the evaluation compounds and brexpiprazole: 0.01, 0.1, and 1 µmol/L, with the proviso that for the evaluation compounds only, the 0-minute reaction samples were also used as calibration curve samples for 1 µmol/L).
For the compounds of Examples 24 to 25, 28 to 29, 32 to 36, 40 to 49, 51 to 60, 62 to 64, 66 to 77, 80 to 86, 90, 92 to 111, 113, 115, 117 to 120, 122, 124 to 130, 132 to 147, and 152 to 160 (EX 24 to EX 25, EX 28 to EX 29, EX 32 to EX 36, EX 40 to EX 49, EX 51 to EX 60, EX 62 to EX 64, EX 66 to EX 77, EX 80 to EX 86, EX 90, EX 92 to EX 111, EX 113, EX 115, EX 117 to EX 120, EX 122, EX 124 to EX 130, EX 132 to EX 147, and EX 152 to EX 160), the reaction solution without the evaluation compound (148.5 µl) was pre-incubated at 37°C for 3 minutes, and then each of the evaluation compound solutions (1.5 µl) was added and stirred; thereafter, the reaction was started at 37°C. At 0 minutes or 60 minutes after the start of the reaction, the reaction was stopped by adding and stirring a reaction stop solution (600 µl) composed of acetonitrile/isopropanol (4:1, v/v) containing internal standard substances. However, the 0-minute reaction sample (148.5 µl) was prepared by adding the evaluation compound (1.5 µl) after adding the reaction stop solution (600 µl). The samples after stopping the reaction were used as the measurement samples. […]

SMILES	Concentration of brexpiprazole formed	Concentration of evaluation compound decreased
O=c1ccc2ccc(OCCCC[N+]3(COP(=O)([O-])OCCOCCO)CCN(c4cccc5sccc45)CC3)cc2[nH]1 [EX 93]	0 nM	-10 nM
CC(C)COCCOP(=O)([O-])OC[N+]1(CCCCOc2ccc3ccc(=O)[nH]c3c2)CCN(c2cccc3sccc23)CC1 [EX 51]	0 nM	50 nM
CC(C)(O)CCOP(=O)([O-])OC[N+]1(CCCCOc2ccc3ccc(=O)[nH]c3c2)CCN(c2cccc3sccc23)CC1 [EX 41]	0 nM	70 nM
CC(C)(C)OC(=O)NC(C)(C)C(=O)OCOP(=O)([O-])OC[N+]1(CCCCOc2ccc3ccc(=O)[nH]c3c2)CCN(c2cccc3sccc23)CC1 [EX 128]	0 nM	-30 nM
COCCNP(=O)([O-])OC[N+]1(CCCCOc2ccc3ccc(=O)[nH]c3c2)CCN(c2cccc3sccc23)CC1 [EX 152]	0 nM	10 nM
CCOCCC(=O)OCOP(=O)([O-])OC[N+]1(CCCCOc2ccc3ccc(=O)[nH]c3c2)CCN(c2cccc3sccc23)CC1 [EX 29]	0 nM	-10 nM
O=C(OCCCCCCOP(=O)([O-])OC[N+]1(CCCCOc2ccc3ccc(=O)[nH]c3c2)CCN(c2cccc3sccc23)CC1)c1ccc([N+](=O)[O-])cc1 [EX 85]	0 nM	40 nM
COCCOCCOC(=O)OCOP(=O)([O-])OC[N+]1(CCCCOc2ccc3ccc(=O)[nH]c3c2)CCN(c2cccc3sccc23)CC1 [EX 34]	0 nM	10 nM
CCCCOCCOCCOCCOC(=O)OCOP(=O)([O-])OC[N+]1(CCCCOc2ccc3ccc(=O)[nH]c3c2)CCN(c2cccc3sccc23)CC1 [EX 138]	0 nM	90 nM
CCOC(=O)CNP(=O)([O-])OC[N+]1(CCCCOc2ccc3ccc(=O)[nH]c3c2)CCN(c2cccc3sccc23)CC1 [EX 154]	0 nM	20 nM
CCOCCOP(=O)([O-])OC[N+]1(CCCCOc2ccc3ccc(=O)[nH]c3c2)CCN(c2cccc3sccc23)CC1 [EX 94]	0 nM	-70 nM
O=c1ccc2ccc(OCCCC[N+]3(COP(=O)([O-])OC/C=C\CO)CCN(c4cccc5sccc45)CC3)cc2[nH]1 [EX 43]	0 nM	120 nM
O=C(OCCCCCCOP(=O)([O-])OC[N+]1(CCCCOc2ccc3ccc(=O)[nH]c3c2)CCN(c2cccc3sccc23)CC1)c1ccccc1 [EX 57]	0 nM	90 nM
Cc1ncccc1C(=O)OCOP(=O)([O-])OC[N+]1(CCCCOc2ccc3ccc(=O)[nH]c3c2)CCN(c2cccc3sccc23)CC1 [EX 81]	0 nM	-30 nM
CCOC(=O)[C@H](C)NP(=O)([O-])OC[N+]1(CCCCOc2ccc3ccc(=O)[nH]c3c2)CCN(c2cccc3sccc23)CC1 [EX 156]	0 nM	170 nM
O=c1ccc2ccc(OCCCC[N+]3(COP(=O)([O-])OC[C@H]4CC[C@H](CO)CC4)CCN(c4cccc5sccc45)CC3)cc2[nH]1 [EX 86]	0 nM	50 nM
CCOC(=O)C1CCN(CCOP(=O)([O-])OC[N+]2(CCCCOc3ccc4ccc(=O)[nH]c4c3)CCN(c3cccc4sccc34)CC2)CC1 [EX 147]	0 nM	70 nM
O=C(OCOP(=O)([O-])OC[N+]1(CCCCOc2ccc3ccc(=O)[nH]c3c2)CCN(c2cccc3sccc23)CC1)C1CCOCC1 [EX 127]	0 nM	40 nM
O=c1ccc2ccc(OCCCC[N+]3(COP(=O)([O-])OCCCCCCCCO)CCN(c4cccc5sccc45)CC3)cc2[nH]1 [EX 11, (4-(benzo[b]thiophen-4-yl)-1-(4-((2-oxo-1,2-dihydroquinolin-7-yl)oxy)butyl)piperazin-1-ium-1-yl)methyl (8-hydroxyoctyl) phosphate]	0 nM	30 nM
COC(=O)[C@H](COP(=O)([O-])OC[N+]1(CCCCOc2ccc3ccc(=O)[nH]c3c2)CCN(c2cccc3sccc23)CC1)NC(=O)OC(C)(C)C [EX 83]	0 nM	70 nM
CC(C)COC(=O)[C@@H](C)OP(=O)([O-])OC[N+]1(CCCCOc2ccc3ccc(=O)[nH]c3c2)CCN(c2cccc3sccc23)CC1 [EX 107]	0 nM	70 nM
CC(O)CCOP(=O)([O-])OC[N+]1(CCCCOc2ccc3ccc(=O)[nH]c3c2)CCN(c2cccc3sccc23)CC1 (stereo not drawn) [EX 40]	0 nM	60 nM
CCCC(C)(C)C(=O)OCOP(=O)([O-])OC[N+]1(CCCCOc2ccc3ccc(=O)[nH]c3c2)CCN(c2cccc3sccc23)CC1 [EX 123]	0 nM	-110 nM
CC1(C)OCC(C(=O)OCOP(=O)([O-])OC[N+]2(CCCCOc3ccc4ccc(=O)[nH]c4c3)CCN(c3cccc4sccc34)CC2)CO1 [EX 67]	0 nM	90 nM
COCC1CCC(COP(=O)([O-])OC[N+]2(CCCCOc3ccc4ccc(=O)[nH]c4c3)CCN(c3cccc4sccc34)CC2)CC1 (stereo not drawn) [EX 54]	0 nM	140 nM
O=c1ccc2ccc(OCCCC[N+]3(COP(=O)([O-])OCCCCO)CCN(c4cccc5sccc45)CC3)cc2[nH]1 [EX 10, (4-(benzo[b]thiophen-4-yl)-1-(4-((2-oxo-1,2-dihydroquinolin-7-yl)oxy)butyl)piperazin-1-ium-1-yl)methyl (4-hydroxybutyl) phosphate]	0 nM	-20 nM
O=c1ccc2ccc(OCCCC[N+]3(COP(=O)([O-])OCCCCCCCBr)CCN(c4cccc5sccc45)CC3)cc2[nH]1 [EX 64]	0 nM	30 nM
